Measurements: patent US8242118B2, “Arylsulfonamide derivatives for use as CCR3 antagonists in the treatment of inflammatory and immunological disorders” (Axikin Pharmaceuticals Inc., priority 2001, dated 2012)

Key:
Human CCR3 = target: T1, Human CCR3 (Homo sapiens, UniProt P51677); experiment: Receptor binding assay (RBA), [125I]-eotaxin; details: human CCR3-transformed K562 cells, 0.1 nM [125I]-eotaxin; compounds of about 40 to 90% purity; read-out: Activity grade RBA (IC50 class)
T1 construct: The cloned CCR3 cDNA was constructed with pcDNA3 vector and transfected into a IC562 cell line; expressed in transfected cells
T1 sequence (P51677 1-355): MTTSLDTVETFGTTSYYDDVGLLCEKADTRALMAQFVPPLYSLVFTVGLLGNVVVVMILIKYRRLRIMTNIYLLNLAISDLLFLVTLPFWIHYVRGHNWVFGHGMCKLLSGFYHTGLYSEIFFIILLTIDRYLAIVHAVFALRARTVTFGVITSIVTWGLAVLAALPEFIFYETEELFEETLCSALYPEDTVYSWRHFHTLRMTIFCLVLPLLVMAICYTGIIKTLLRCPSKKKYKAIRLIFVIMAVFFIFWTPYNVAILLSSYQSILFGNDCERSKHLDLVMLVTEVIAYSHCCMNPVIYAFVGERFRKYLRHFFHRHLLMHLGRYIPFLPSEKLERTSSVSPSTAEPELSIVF
Procedure, shortened: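 Butyrate-pretreated (5 mM, 20-24 h) CCR3-transfected K562 cells incubated 1 h at room temperature with compound and 0.1 nM final [125I]-eotaxin in HEPES pH 7.6 buffer; bound radioactivity counted after filtration. Non-specific binding with 500 nM unlabeled eotaxin; IC50 from inhibition curve.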

Structure (SMILES) | melting point | IC50 (Human CCR3)
Cl.O=[N+]([O-])c1ccc(Oc2cc(Cl)cc(Cl)c2Cl)c(S(=O)(=O)N2CCNCC2)c1 [Example 1-86] | 188 to 189 °C | < 1000 nM
O=C(O)C1CNCCN1S(=O)(=O)c1cc([N+](=O)[O-])ccc1Oc1cc(Cl)cc(Cl)c1 (centres unmarked) [Example 1-87] | 240 to 241 °C | < 1000 nM
Cc1cc(C)cc(Oc2ccc([N+](=O)[O-])cc2S(=O)(=O)N2CCN(CCO)CC2)c1 [Example 1-88] | 163 to 164 °C | < 1000 nM
Cl.O=[N+]([O-])c1ccc(Oc2cc(Cl)cc(Cl)c2)c(S(=O)(=O)N2CCCNCC2)c1 [Example 1-91] | 261 to 263 °C | < 1000 nM
Cl.N[C@H]1CCN(S(=O)(=O)c2cc([N+](=O)[O-])ccc2Oc2cc(Cl)cc(Cl)c2)C1 [Example 1-100] | 256 to 258 °C | < 1000 nM

Other lines, results leading:

melting point | IC50 (Human CCR3) | Structure (SMILES)
228 to 230 °C | > 10000 nM | Cc1cc(C)cc(Oc2ccc(NC(=O)Cc3ccccc3)cc2S(=O)(=O)N2CCNCC2)c1 [Example 7-1, N-[4-(3,5-dimethylphenoxy)-3-(1-piperazinylsulfonyl)phenyl]-2-phenylacetamide]
113 to 114 °C | < 1000 nM | CN(CCN1CCCCC1)S(=O)(=O)c1cc([N+](=O)[O-])ccc1Sc1cc(Cl)cc(Cl)c1 [Example 26-1, 2-[(3,5-dichlorophenyl)sulfanyl]-N-methyl-5-nitro-N-[2-(1-piperidinyl)ethyl]benzenesulfonamide]
